Measurements reported in BindingDB's records for doi:10.1016/j.bmcl.2005.08.072 (Merck Research Laboratories, 2005).

Molecular target: T1, Dimer of Gag-Pol polyprotein [489-587,Q496K] (Human immunodeficiency virus 1, UniProt P12497, Q496K)
T1 construct: 489-587
Assay: Protease Inhibition Assay
Settings: pH 5.5; 30 °C
Experimental: Assay of HIV protease inhibition was performed by peptide cleavage using the substrate Val-Ser-Gln-Asn-beta-naphthylalanine*Pro-Ile-Val. Products of the cleavage reaction were quantified by HPLC detection, and data were fit to nonlinear least squares equations for determination of steady-state Michaelis-Menten kinetics.

SMILES	IC50
CC(C)(c1ncc(-c2ccc(Cl)cc2)o1)N1CCN(C[C@@H](O)C[C@@H](Cc2cc3ccncc3s2)C(=O)N[C@H]2c3ccccc3OC[C@H]2O)[C@H](C(=O)NCC(F)(F)F)C1 [(2S)-4-{2-[5-(4-chlorophenyl)-1,3-oxazol-2-yl]propan-2-yl}-1-[(2S,4S)-2-hydroxy-4-{[(3S,4S)-3-hydroxy-3,4-dihydro-2H-1-benzopyran-4-yl]carbamoyl}-4-{thieno[2,3-c]pyridin-2-ylmethyl}butyl]-N-(2,2,2-trifluoroethyl)piperazine-2-carboxamide]	< 20 pM
CC(C)(c1ncc(-c2ccc(Cl)cc2)o1)N1CCN(C[C@@H](O)C[C@@H](Cc2cc3c(Cl)cncc3s2)C(=O)N[C@H]2c3ccccc3OC[C@H]2O)[C@H](C(=O)NCC(F)(F)F)C1 [(2S)-4-{2-[5-(4-chlorophenyl)-1,3-oxazol-2-yl]propan-2-yl}-1-[(2S,4S)-4-({4-chlorothieno[2,3-c]pyridin-2-yl}methyl)-2-hydroxy-4-{[(3S,4S)-3-hydroxy-3,4-dihydro-2H-1-benzopyran-4-yl]carbamoyl}butyl]-N-(2,2,2-trifluoroethyl)piperazine-2-carboxamide]	< 20 pM
